Data reported in ChEMBL document CHEMBL1201862, “PubChem BioAssay data set” (2004).
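Exposure lasted 48 hours, with cells grown in 96-well plates and compounds tested at five concentrations. GI50 marks 50% less growth.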 Calls of active or inactive are those of the source. Rule as the data show it: active = GI50 up to about 1.1 µM and inactive = higher.

How the values were obtained:
Assay in all cases: NCI-60 cell line screen, 48 h
786-0 = system: 786-0
A498 = system: A498
ACHN = system: ACHN
BT-549 = system: BT-549
CCRF-CEM = system: CCRF-CEM
COLO 205 = system: COLO 205
HCC 2998 = system: HCC 2998
HOP-62 = system: HOP-62
HOP-92 = system: HOP-92
HT-29 = system: HT-29
K562 = system: K562
M14 = system: M14
NCI-H460 = system: NCI-H460
NCI/ADR-RES = system: NCI/ADR-RES
PC-3 = system: PC-3
SF-539 = system: SF-539
U-251 = system: U-251
UACC-257 = system: UACC-257
UACC-62 = system: UACC-62

Measured: GI50

CC1CCc2c(c(CC3CC(=O)NC(=O)C3)nn2-c2ccccc2)C1 (stereo not drawn)
inactive: 786-0 > 100 µM | A498 > 100 µM | ACHN > 100 µM | BT-549 > 100 µM | CCRF-CEM > 100 µM | COLO 205 > 100 µM | HCC 2998 > 100 µM | HOP-62 > 100 µM | HOP-92 > 100 µM | HT-29 > 100 µM | K562 > 100 µM | M14 > 100 µM | NCI-H460 99.1 µM | NCI/ADR-RES 75.2 µM | PC-3 > 100 µM | SF-539 > 100 µM | U-251 > 100 µM | UACC-257 > 100 µM | UACC-62 76.2 µM

CCCNc1[nH]c(C(=O)c2ccccc2)c(N)c1C(=S)Nc1ccccc1
inactive: 786-0 > 100 µM | A498 > 100 µM | ACHN > 100 µM | BT-549 > 100 µM | CCRF-CEM > 100 µM | COLO 205 > 100 µM | HCC 2998 > 100 µM | HOP-62 > 100 µM | HOP-92 > 100 µM | HT-29 > 100 µM | K562 > 100 µM | M14 > 100 µM | NCI-H460 > 100 µM | NCI/ADR-RES > 100 µM | PC-3 > 100 µM | SF-539 > 100 µM | U-251 > 100 µM | UACC-257 > 100 µM | UACC-62 > 100 µM

N#Cc1c(-c2ccccc2)c(/N=N/c2ccc(F)cc2)c(=O)n2c1[nH]c1ccccc12
inactive: 786-0 3.65 µM | A498 8.02 µM | ACHN 5.64 µM | BT-549 8.85 µM | CCRF-CEM 1.26 µM | COLO 205 3.43 µM | HCC 2998 6.24 µM | HOP-62 6.15 µM | HOP-92 2.18 µM | HT-29 2.92 µM | K562 3.18 µM | M14 3.54 µM | NCI-H460 2.31 µM | NCI/ADR-RES 3 µM | PC-3 3.4 µM | SF-539 10.9 µM | U-251 3.66 µM | UACC-257 3.21 µM | UACC-62 4.82 µM

Nc1ccc2[nH]c(C(=O)N3CC(CCl)c4c3cc(N)c3ccccc43)cc2c1 (stereo not drawn)
active: 786-0 < 0.01 µM | A498 < 0.01 µM | ACHN < 0.01 µM | BT-549 < 0.016 µM | CCRF-CEM < 0.01 µM | COLO 205 0.0101 µM | HCC 2998 < 0.01 µM | HOP-62 < 0.01 µM | HOP-92 0.0115 µM | HT-29 < 0.01 µM | K562 < 0.01 µM | M14 0.0107 µM | NCI-H460 < 0.01 µM | NCI/ADR-RES < 0.01 µM | PC-3 < 0.01 µM | SF-539 < 0.01 µM | U-251 < 0.01 µM | UACC-257 0.0142 µM | UACC-62 < 0.01 µM

C=CC(c1ccccc1)[C@@]1(OC(C)=O)C(=O)C(=O)OC1C1COC(C)(C)O1 (stereo partly drawn)
inactive: 786-0 10.4 µM | A498 19.7 µM | ACHN 5.78 µM | BT-549 12 µM | CCRF-CEM 2.84 µM | COLO 205 8.26 µM | HCC 2998 17.2 µM | HOP-62 17.3 µM | HOP-92 5.92 µM | HT-29 15.1 µM | K562 3.94 µM | M14 11.1 µM | NCI-H460 14.5 µM | NCI/ADR-RES 15.5 µM | PC-3 10.9 µM | SF-539 10.4 µM | U-251 14.3 µM | UACC-257 9.71 µM | UACC-62 14.1 µM

NP(=O)(Oc1c2occc2cc2ccc(=O)oc12)N(CCCl)CCCl (stereo not drawn)
inactive: 786-0 > 100 µM | A498 > 100 µM | ACHN 83.2 µM | BT-549 > 100 µM | CCRF-CEM 45.2 µM | COLO 205 > 100 µM | HCC 2998 > 100 µM | HOP-62 > 100 µM | HOP-92 49.1 µM | HT-29 > 100 µM | K562 > 100 µM | M14 > 100 µM | NCI-H460 68.1 µM | NCI/ADR-RES > 100 µM | PC-3 > 100 µM | SF-539 > 100 µM | U-251 > 100 µM | UACC-257 > 100 µM | UACC-62 > 100 µM

COc1ccccc1/N=C1\SCCN1C(=S)Nc1ccc(S(=O)(=O)/N=C/N(C)C)cc1
inactive: 786-0 44.2 µM | A498 > 100 µM | ACHN 32.4 µM | BT-549 21.9 µM | CCRF-CEM 38.3 µM | COLO 205 28.6 µM | HCC 2998 > 100 µM | HOP-62 > 100 µM | HOP-92 27.9 µM | K562 39.6 µM | M14 51.5 µM | NCI-H460 > 100 µM | NCI/ADR-RES 45 µM | PC-3 > 100 µM | SF-539 21.9 µM | U-251 > 100 µM | UACC-257 36.1 µM | UACC-62 25.7 µM

O=C(N/N=C\c1ccc([N+](=O)[O-])cc1)Nc1cccc2ccccc12
inactive: 786-0 7.1 µM | A498 14 µM | ACHN 27.5 µM | BT-549 4.25 µM | CCRF-CEM > 100 µM | COLO 205 > 100 µM | HCC 2998 24.1 µM | HOP-62 5.93 µM | HOP-92 6.15 µM | HT-29 > 100 µM | K562 > 100 µM | M14 58.9 µM | NCI-H460 > 37.3 µM | NCI/ADR-RES 19.1 µM | PC-3 23 µM | SF-539 10.7 µM | U-251 4.79 µM | UACC-257 > 79.3 µM | UACC-62 13.2 µM

CCOC(=O)CNC(=O)C(CSC(=O)N(O)c1ccc(Br)cc1)NC(=O)CCC(N)C(=O)OCC (stereo not drawn)
inactive: 786-0 > 50 µM | A498 > 50 µM | ACHN > 50 µM | BT-549 > 50 µM | CCRF-CEM 27.4 µM | COLO 205 > 50 µM | HCC 2998 > 50 µM | HOP-62 > 50 µM | HOP-92 8.45 µM | HT-29 > 50 µM | K562 41.9 µM | M14 > 50 µM | NCI-H460 > 50 µM | NCI/ADR-RES > 50 µM | PC-3 > 50 µM | SF-539 > 50 µM | U-251 > 50 µM | UACC-257 > 50 µM | UACC-62 > 50 µM

CNn1c(-c2ccccc2)n[nH]c1=O
inactive: 786-0 > 100 µM | A498 > 100 µM | ACHN > 100 µM | BT-549 > 100 µM | CCRF-CEM > 100 µM | COLO 205 > 100 µM | HCC 2998 > 100 µM | HOP-62 > 100 µM | HOP-92 > 100 µM | HT-29 > 100 µM | K562 > 100 µM | M14 > 100 µM | NCI-H460 > 100 µM | NCI/ADR-RES > 100 µM | PC-3 > 100 µM | SF-539 > 100 µM | U-251 > 100 µM | UACC-257 > 100 µM | UACC-62 > 100 µM

C=CCN1C(=O)/C(=C/c2ccco2)N=C1SC/C=C/C
inactive: 786-0 28.2 µM | A498 43.3 µM | ACHN 35.4 µM | BT-549 40.2 µM | CCRF-CEM 45.9 µM | COLO 205 36 µM | HCC 2998 93.8 µM | HOP-62 > 100 µM | HOP-92 21.6 µM | HT-29 40.4 µM | K562 32.4 µM | M14 64.1 µM | NCI-H460 57.9 µM | NCI/ADR-RES 37.1 µM | PC-3 39 µM | SF-539 > 100 µM | U-251 49.2 µM | UACC-257 48.5 µM | UACC-62 25.9 µM
